Measurements reported in US7879853B2, “4,6-disubstituted pyrimidines and their use as protein kinase inhibitors” (Bayer Schering Pharma AG, priority 2004, dated 2011).

What was measured:
[1] = test system: phosphorylated Akt1 (Ser473) in MCF7 cells; assay: Cellular PI3K/Akt pathway assay (pAkt-ELISA); format: cell-based; settings: Homo sapiens, β-Heregulin (20 ng/ml) stimulation, 48 h, read-out: Akt pathway inhibition (pAkt-ELISA): IC50
Method: In order to study the cellular activity of the compounds according to the invention, an ELISA-based assay has been established. The assay is based on a Sandwich ELISA kit (PathScan™ Phospho-Akt1 (Ser473); Cell Signaling, USA; #7160).
The assay detects endogenous levels of phosphorylated Akt1 protein. A phospho-Akt (Ser473) antibody (Cell Signaling, USA; #9271) has been coated onto the microwells. After incubation with cell lysates, the phosphorylated Akt protein is captured by the coated antibody. Following extensive washing, Akt1 monoclonal antibody (Cell Signaling, USA; #2967) is added to detect the captured phospho-Akt1 protein. HRP-linked anti-mouse antibody (Cell Signaling, USA; #7076) is then used to recognize the bound detection antibody. […] The magnitude of optical density for this developed color is proportional to the quantity of phosphorylated Akt1 protein. […]
Cells are harvested under nondenaturating conditions and lysed with brief sonification in 1× cell lyses buffer (20 mM Tris (pH7.5), 150 mM NaCl, 1 mM ethylene diaminetetraacetate (EDTA), 1 mM ethylene glycolbis-(2-aminoethyl)-N,N,N′,N′-tetraacetic acid (EGTA), 1% Triton X-100, 2.5 mM sodium pyrophosphate, 1 mM β-glycerolphosphate, 1 mM Na3VO4, 1 μg/ml leupeptin). […] The absorbance is read at 450 nm (Wallac Victor2; Perkin Elmer, USA) within 30 minutes after adding STOP solution. […]

[2] = target: T1, Akt1 (full-length Akt1, inactive) (Homo sapiens, UniProt P31749); assay: Biochemical Akt1 (inactive) assay (full-length Akt1), IMAP, PDK1-dependent activation; settings: activation by PDK1 with PIP3 vesicles, 50 μM ATP, 60 min. at room temperature; read-out: Inhibition of Akt1 activation (full-length Akt1, inactive): IC50
T1 construct: recombinant full-length human Akt1 a containing N-terminal His6 tag; His6 (N); purchased Upstate, UK #14-279; host or cells: baculovirus infected Sf21 insect cells
T1 sequence (P31749 whole entry): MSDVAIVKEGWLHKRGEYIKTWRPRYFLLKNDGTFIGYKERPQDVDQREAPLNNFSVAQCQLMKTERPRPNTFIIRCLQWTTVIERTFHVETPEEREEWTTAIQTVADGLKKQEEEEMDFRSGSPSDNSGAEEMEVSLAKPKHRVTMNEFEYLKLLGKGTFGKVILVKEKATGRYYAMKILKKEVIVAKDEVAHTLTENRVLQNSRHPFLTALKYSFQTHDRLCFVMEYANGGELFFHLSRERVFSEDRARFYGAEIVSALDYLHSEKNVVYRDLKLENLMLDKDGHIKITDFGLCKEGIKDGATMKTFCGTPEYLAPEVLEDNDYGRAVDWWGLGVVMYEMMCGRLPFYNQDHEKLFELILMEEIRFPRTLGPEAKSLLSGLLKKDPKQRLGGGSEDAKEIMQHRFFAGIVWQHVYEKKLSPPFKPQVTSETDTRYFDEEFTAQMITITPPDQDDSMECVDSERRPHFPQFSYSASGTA
Method: The enzyme is purified using Ni2+/NTA-agarose (Upstate, UK; #14-279).
The enzyme is purified using Ni2+/NTA-agarose.
PDK1-dependent activation and subsequent enzymatic activity of Akt1: Activity of purified human Akt1 is routinely measured in an assay in which the enzyme is first activated by PDK1 in the presence of phosphatidylinositol-3,4,5-triphosphate (PIP3). Once activated, Akt1-dependent phosphorylation of a fluorescence labelled peptide substrate is measured by fluorescence polarisation using the IMAP technology (Molecular Devices).
The phospholipids are prepared as follows: 5 mg DOPC/DOPS are solved in 200 μl 10 mM Tris (pH 7.4) and 300 μg PIP3 are resuspended in 950 μl 10 mM Tris (pH 7.4) by pipetting. 950 μl solved PIP3 are mixed with 50 μl solved DOPC/DOPS and incubated for 2 h at a temperature below 20° C. Then the mixture is subjected to sonification for 30 min. at max. power until a translucent phopholipid vesicle preparation is obtained. Aliquots of the vesicle suspension are frozen at −80° C. until needed, likewise the solved DOPC/DOPS.
Assays are performed in 384-well plates. Incubations are carried out for 60 min. at room temperature. The reaction buffer mixture contains in a final volume of 25 μl: 10 mM Tris pH 7.4, 10 mM MgCl2. 1 mM DTT, and 0,1 mg/ml BSA. In contrast the activation buffer contains: 50 ng/well Akt1, 20 ng/well PDK1, 1.25 μM peptide substrat, 50 μM ATP, and phospholipid vesicles (1:20). Test compounds are added from stock solutions in DMSO before activation of Akt1 by PDK1. After the incubation the beads (IMAP binding reagent; Molecular Devices; 1:167) are added and the fluorescence polarization is measured (excitation 485 nm, emission 530 nm). The analysis of the data is performed using a biostatistical program.

## CC(C)(N)c1ccc(C(=O)Nc2ccc(Nc3cc(-c4cccc5c4oc4ccccc45)ncn3)cc2)cc1 [Compound 69, 4-(1-Amino-1-methyl-ethyl)-N-[4-(6-dibenzofuran-4-yl-pyrimidin-4-ylamino)-phenyl]-benzamide trifluoracetate]
[1]
  IC50: 6 µM
[2]
  IC50: ≤ 4.4 µM
